Assay [1] concerns the target T1, RORβ (Homo sapiens, UniProt Q92753).
T1 construct: expressed in transfected cells; host or cells: HEK293
T1 sequence (Q92753 1-459 isoform Q92753-1): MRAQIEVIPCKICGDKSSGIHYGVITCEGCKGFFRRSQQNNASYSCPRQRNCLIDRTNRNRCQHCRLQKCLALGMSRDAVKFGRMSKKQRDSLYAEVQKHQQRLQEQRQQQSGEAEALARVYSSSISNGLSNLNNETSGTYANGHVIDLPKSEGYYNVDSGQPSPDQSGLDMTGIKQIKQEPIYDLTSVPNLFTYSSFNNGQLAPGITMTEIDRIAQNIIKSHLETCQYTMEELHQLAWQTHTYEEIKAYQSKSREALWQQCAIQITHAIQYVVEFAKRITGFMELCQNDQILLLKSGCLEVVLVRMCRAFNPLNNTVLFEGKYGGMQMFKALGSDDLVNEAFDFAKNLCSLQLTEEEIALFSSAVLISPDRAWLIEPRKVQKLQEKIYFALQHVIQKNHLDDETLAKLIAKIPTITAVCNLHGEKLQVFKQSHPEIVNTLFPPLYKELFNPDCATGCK
The note with it: reporter gene assay, HEK293; read-out: RORβ inverse agonistic activity (IC50); cited from earlier work. For orientation: A reporter such as luciferase makes a cellular process visible.

Assay [2] concerns the target T2, PR (Homo sapiens, UniProt P06401).
T2 sequence (P06401 1-933): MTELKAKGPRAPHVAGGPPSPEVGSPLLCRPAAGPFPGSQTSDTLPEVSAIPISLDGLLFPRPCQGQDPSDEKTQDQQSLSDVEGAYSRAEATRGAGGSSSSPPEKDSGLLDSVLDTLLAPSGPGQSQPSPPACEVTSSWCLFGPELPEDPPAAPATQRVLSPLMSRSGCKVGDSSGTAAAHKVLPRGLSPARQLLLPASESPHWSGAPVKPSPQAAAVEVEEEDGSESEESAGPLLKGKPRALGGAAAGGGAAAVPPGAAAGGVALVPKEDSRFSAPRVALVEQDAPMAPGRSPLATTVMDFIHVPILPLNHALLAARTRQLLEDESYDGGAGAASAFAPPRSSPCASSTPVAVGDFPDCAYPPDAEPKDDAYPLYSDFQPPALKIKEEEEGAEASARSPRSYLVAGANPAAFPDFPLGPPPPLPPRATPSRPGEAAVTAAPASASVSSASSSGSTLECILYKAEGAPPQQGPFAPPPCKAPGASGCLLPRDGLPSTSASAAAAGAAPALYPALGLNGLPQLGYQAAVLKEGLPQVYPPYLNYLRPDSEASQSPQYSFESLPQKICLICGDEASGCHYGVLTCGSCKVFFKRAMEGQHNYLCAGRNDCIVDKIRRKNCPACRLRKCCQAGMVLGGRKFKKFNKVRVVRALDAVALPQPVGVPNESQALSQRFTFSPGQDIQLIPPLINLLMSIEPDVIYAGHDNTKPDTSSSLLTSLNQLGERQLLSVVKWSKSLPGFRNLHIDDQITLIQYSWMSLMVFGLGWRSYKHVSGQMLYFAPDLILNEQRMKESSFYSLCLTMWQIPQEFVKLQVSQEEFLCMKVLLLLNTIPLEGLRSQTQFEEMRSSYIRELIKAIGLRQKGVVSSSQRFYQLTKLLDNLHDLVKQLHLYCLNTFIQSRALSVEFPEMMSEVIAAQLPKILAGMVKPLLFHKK
To be noted: cited from earlier work; for IC50: alkaline phosphatase, T47D cells, progesterone 1 nM, read-out: PR antagonistic activity (IC50).

In assay [3] the target is T3, GR (Homo sapiens, UniProt P04150).
T3 construct: expressed in transfected cells; host or cells: HEK293
T3 sequence (P04150 1-777): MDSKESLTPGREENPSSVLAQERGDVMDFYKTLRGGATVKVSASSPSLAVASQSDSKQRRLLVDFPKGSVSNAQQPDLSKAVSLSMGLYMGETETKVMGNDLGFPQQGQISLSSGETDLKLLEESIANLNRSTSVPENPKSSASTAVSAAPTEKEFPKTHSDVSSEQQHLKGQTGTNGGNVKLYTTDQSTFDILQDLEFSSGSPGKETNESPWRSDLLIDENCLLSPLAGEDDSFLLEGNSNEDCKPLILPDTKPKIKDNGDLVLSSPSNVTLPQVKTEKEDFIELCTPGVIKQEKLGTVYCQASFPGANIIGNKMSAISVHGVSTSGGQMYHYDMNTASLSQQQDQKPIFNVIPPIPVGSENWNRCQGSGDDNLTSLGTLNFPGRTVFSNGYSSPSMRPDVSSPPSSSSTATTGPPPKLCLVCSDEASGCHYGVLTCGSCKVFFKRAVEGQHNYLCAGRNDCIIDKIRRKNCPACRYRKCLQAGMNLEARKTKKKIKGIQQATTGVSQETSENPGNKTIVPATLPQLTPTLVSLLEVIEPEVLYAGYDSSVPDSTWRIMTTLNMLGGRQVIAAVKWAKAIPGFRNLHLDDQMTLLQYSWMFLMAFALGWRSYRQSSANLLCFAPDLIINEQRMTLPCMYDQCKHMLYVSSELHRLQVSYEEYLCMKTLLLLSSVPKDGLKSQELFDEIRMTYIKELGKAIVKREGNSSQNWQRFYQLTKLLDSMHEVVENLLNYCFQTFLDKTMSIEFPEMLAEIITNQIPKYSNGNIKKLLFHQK
Put plainly: GR reporter gene assay in HEK293. It counts as cell-based. To be noted: for IC50: reporter gene assay, HEK293, agonist dexamethasone 1 nM, read-out: GR antagonistic activity (IC50).

Assay [4] deals with LNCaP cells (T877A mutation in the AR LBD). Kind of assay: PSA level (ELISA) in LNCaP cell line. The format is cell-based, human. To be noted: for IC50: Homo sapiens, LNCaP, dihydrotestosterone 10 nM, 48 h, ± SEM. From the text:
Chronic administration of AR antagonists often leads to the development of resistance. […] In contrast, another AR antagonist, enzalutamide, was reported to antagonize AR mutant T877A [23]. Thus, development of a novel chemical class of AR antagonists, different from flutamide analogs seems an attractive approach for the treatment of AR antagonist-resistant cancer, providing further motivation to evaluate steroid surrogates. Therefore, we investigated the antiandrogenic activity of several potent AR antagonists by means of PSA (prostate-specific antigen, an AR-regulated gene) ELISA (enzyme-linked immunosorbent assay) in human prostate cancer cell line LNCaP, which has T877A mutation in the AR LBD.
The human prostate cancer cell line LNCaP (ECACC, London, UK) was routinely maintained in RPMI1640 containing 10% (v/v) fetal bovine serum, and penicillin/streptomycin at 37 °C in a humidified atmosphere of 5% CO2 in air. Cells were cultured in RPMI1640 without phenol red containing 10% (v/v) charcoal-stripped fetal bovine serum, and penicillin/streptomycin at 37 °C in a humidified atmosphere of 5% CO2 in air for 3 days. Then cells were plated in 96-well plates at 1 × 10^4 cells/well and incubated overnight. On the next day, cells were treated with fresh media containing test compound plus dihydrotestosterone (final concentration 10 nM), and incubated for 48 h. Then, PSA levels were measured in the culture supernatants, after 100-fold dilution with the medium, using ELISA (Immunospec Corp., CA, USA Free prostate-specific antigen cat. #E29-212) according to the manufacturer’s instructions. All data points were carried out twice in triplicate.
(In general: An ELISA detects its analyte on a solid surface through an enzyme-linked reagent.)

Where only a bound is given, the exact number is not on record here.

One may read the IC50 as the concentration that inhibits the measured activity by half.

With `CCCCn1c(=O)c2ccccc2c2cc(C(O)(C(F)(F)F)C(F)(F)F)cc(OC)c21` [Compound 20], the IC50 was 6.9 µM in assay [1] and 3.9 µM in assay [3]. In assay [2], the “enhanced PR activity compared with unsubstituted analog 12” value was > 2 fold.
In the case of `O=c1[nH]c2ccc(C(O)(C(F)(F)F)C(F)(F)F)cc2c2cc(F)ccc12` [Compound 35], the figures for the IC50 in assay [1], in assay [3] and in assay [4] were 8.3 µM, 7 µM and 0.55 ± 0.11 µM, respectively.
As for `Cn1c(=O)c2ccccc2c2cc(C(O)(C(F)(F)F)C(F)(F)F)ccc21` [Compound 13], the concentration for half-maximal inhibition (IC50) in assay [1] was > 20 µM; in assay [3], > 20 µM; in assay [4], > 10 µM.
For the compound `CCCCn1c(=O)c2cc(OC)ccc2c2cc(C(O)(C(F)(F)F)C(F)(F)F)cc(OC)c21` [Compound 28], the IC50 in assay [1] was 11 µM; in assay [2], 0.34 µM; in assay [3] it was 5.2 µM.
`O=c1[nH]c2ccc(C(O)(C(F)(F)F)C(F)(F)F)cc2c2ccc(F)cc12` [Compound 34]: the results for the IC50 in assay [1], in assay [3] and in assay [4] were 11 µM, > 20 µM and > 10 µM, respectively.
On to `CCc1cc(C(O)(C(F)(F)F)C(F)(F)F)cc2c1[nH]c(=O)c1ccccc12` [Compound 41], for which the IC50 in assay [1] and in assay [3] was > 20 µM in each case.
On to `CCCCn1c(=O)c2ccccc2c2ccccc21` [Compound 7], for which the IC50 in assay [1] is 13 µM; in assay [3], > 20 µM.
On to `O=c1[nH]c2c(Cl)cc(C(O)(C(F)(F)F)C(F)(F)F)cc2c2ccccc12` [Compound 43, 4-Chloro-2-(1,1,1,3,3,3-hexafluoro-2-hydroxypropan-2-yl)phenanthridin-6(5H)-one], for which, in assay [3], the IC50 is > 20 µM. In assay [4], the “antiandrogenic activity in LNCaP” value is on record as “did not show antiandrogenic activity” and the IC50 was > 10 µM.
With `CCCCn1c(=O)c2ccccc2c2cc(CO)ccc21` [Compound 11], the IC50 in assay [1] and in assay [3] was > 20 µM throughout.
On to `CCCCn1c(=O)c2ccccc2c2cc(C(O)(C(F)(F)F)C(F)(F)F)c(OC)cc21` [Compound 19], for which the IC50 in assay [1] is 8.2 µM. Further, the “enhanced PR activity compared with unsubstituted analog 12” value in assay [2] is recorded as “more than 3 fold”. In addition, in assay [3], the “improved GR activity compared with 12” value was 5.7 fold and the IC50 was determined as 1.3 µM.
In the case of `CCCCn1c(=O)c2c(OC)cc(OC)cc2c2cc(C(O)(C(F)(F)F)C(F)(F)F)ccc21` [Compound 30], the IC50 in assay [1], in assay [2] and in assay [3] was > 20 µM in each case.
For the compound `CCCCn1c(=O)c2c(OC)cccc2c2cc(C(O)(C(F)(F)F)C(F)(F)F)ccc21` [Compound 21], the IC50 in assay [1] was 15 µM; in assay [3] it was 14 µM.
Turning to `CCCc1cc(C(O)(C(F)(F)F)C(F)(F)F)cc2c1[nH]c(=O)c1ccccc12` [Compound 42], the IC50 is 11 µM in assay [1] and 16 µM in assay [3].
Regarding `CCCCn1c(=O)c2ccccc2c2c(OC)c(C(O)(C(F)(F)F)C(F)(F)F)ccc21` [Compound 18], the IC50 in assay [1] and in assay [3] was > 20 µM throughout.
`CCCCn1c(=O)c2cc(OC)ccc2c2cc(C(O)(C(F)(F)F)C(F)(F)F)ccc21` [Compound 22]: the figures for the IC50 in assay [1] and in assay [3] were 15 µM and 8.2 µM, respectively.
As for `CCCCn1c(=O)c2cccc(OC)c2c2cc(C(O)(C(F)(F)F)C(F)(F)F)ccc21` [Compound 24], the IC50 in assay [1] and in assay [3] was > 20 µM each time.
`CCCCn1c(=O)c2ccc(OC)cc2c2cc(C(O)(C(F)(F)F)C(F)(F)F)ccc21` [Compound 23]: the IC50 was 7.2 µM in assay [1] and 10 µM in assay [3].
For the compound `CCn1c(=O)c2ccccc2c2cc(C(O)(C(F)(F)F)C(F)(F)F)ccc21` [Compound 14], the IC50 in assay [1] and in assay [3] was > 20 µM in each case.
Turning to `CCCCn1c(=O)c2ccccc2c2cc(C(C)(C)C)ccc21` [Compound 10], the IC50 in assay [1] is 13 µM; in assay [3], > 20 µM.
In the case of `O=c1[nH]c2c(F)cc(C(O)(C(F)(F)F)C(F)(F)F)cc2c2ccccc12` [Compound 32], the IC50 in assay [1] is 14 µM; in assay [3], 6.9 µM; in assay [4] it was 0.49 ± 0.26 µM.
Turning to `CCCCn1c(=O)c2cc(OC)c(OC)cc2c2cc(C(O)(C(F)(F)F)C(F)(F)F)ccc21` [Compound 31], the IC50 in assay [1] is 16 µM; in assay [2], 9.6 µM; in assay [3] it was 17 µM.
Consider `CCCCn1c(=O)c2cc(OC)ccc2c2cc(C(O)(C(F)(F)F)C(F)(F)F)c(OC)cc21` [Compound 27], for which the values for the IC50 in assay [1], in assay [2] and in assay [3] were 13 µM, 0.3 µM and 1.7 µM, respectively.
`CCCCCCCCCn1c(=O)c2ccccc2c2cc(C(O)(C(F)(F)F)C(F)(F)F)ccc21` [Compound 17]: the IC50 in assay [1] and in assay [3] was > 20 µM throughout.
`CCCCn1c(=O)c2ccccc2c2cc(C(O)(C(F)(F)F)C(F)(F)F)c(OC)c(OC)c21` [Compound 25]: the results for the IC50 in assay [1], in assay [2] and in assay [3] were > 10 µM, 0.51 µM and > 20 µM, respectively.
For `CCCCn1c(=O)c2c(OC)c(OC)ccc2c2cc(C(O)(C(F)(F)F)C(F)(F)F)ccc21` [Compound 29], the IC50 is 7.7 µM in assay [1], 4.2 µM in assay [2] and 7.9 µM in assay [3].
In the case of `COc1cc(C(O)(C(F)(F)F)C(F)(F)F)cc2c1[nH]c(=O)c1ccccc12` [Compound 39], the IC50 in assay [1] and in assay [3] was > 20 µM each time.

These data come from paper PMC6073568, “Efficient Lead Finding, Activity Enhancement and Preliminary Selectivity Control of Nuclear Receptor Ligands Bearing a Phenanthridinone Skeleton” (International Journal of Molecular Sciences, 2018).
